The record followed here is ChEMBL document CHEMBL4400580, “Expanded Structure-Activity Studies of Lipoxazolidinone Antibiotics” (ACS Med Chem Lett, 2019).

Converted amounts (≈) assume the structure as drawn.

Data set [1] concerns Staphylococcus aureus. The experiment in a line: Antimicrobial activity against methicillin-resistant Staphylococcus aureus ATCC 33591 measured after 16 hrs by broth microdilution method. The class given is functional. As to conditions: ATCC 33591, 16 h.
The subject of another data set is Acinetobacter baumannii. As to the kind of experiment: Antimicrobial activity against Acinetobacter baumannii ATCC 19606 measured after 16 hrs by broth microdilution method. The class given is functional. Particulars: ATCC 19606 = CIP 70.34 = JCM 6841, 16 h. Background: In broth dilution the organism is exposed to a series of concentrations in liquid medium.
The subject of data set [2] is Staphylococcus aureus. The experiment in a line: Antimicrobial activity against methicillin-sensitive Staphylococcus aureus ATCC 29213 measured after 16 hrs by broth microdilution method. The class given is functional. As to conditions: ATCC 29213, 16 h.
Data set [3] concerns Escherichia coli. The experiment in a line: Antimicrobial activity against Escherichia coli SQ110 LPTD measured after 16 hrs by broth microdilution method. The class given is functional.
Data set [4] concerns Escherichia coli. As to the kind of experiment: Antimicrobial activity against Escherichia coli SQ110 DTC measured after 16 hrs by broth microdilution method. The class given is functional.
For data set [5], the system named is Escherichia coli. The experiment in a line: Antimicrobial activity against Escherichia coli SQ110 measured after 16 hrs by broth microdilution method. Particulars: SQ110, 16 h. The class given is functional.
The test system of the next data set is A549. The experiment in a line: Cytotoxicity against human A549 cells assessed as reduction in cell viability measured after 72 hrs by ATP-liteM luciferin-luciferase assay. The class given is cell-based. As to conditions: A549, 72 h.
A short description of data set [6]: Hemolysis in red blood cells (unknown origin) up to 40 uM. Particulars: read-out: Activity. The class given is ADME, cell-based, Erythrocyte.

As to `CC(C)[C@@H]1O/C(=C/C(=O)Cc2ccc(Br)cc2)NC1=O`, the figures for the MIC against Staphylococcus aureus [1], against Acinetobacter baumannii and in the data set on Staphylococcus aureus [2] were 0.5 µg/mL (≈ 1.48 µM), 64 µg/mL (≈ 189 µM) and 1 µg/mL (≈ 2.96 µM), respectively.

Regarding `CC(C)[C@@H]1O/C(=C/C(=O)Cc2cc(F)ccc2F)NC1=O`, the minimal inhibitory concentration (MIC) (usually the least concentration at which growth counts as inhibited) in the data set on Staphylococcus aureus [1] stood at 8 µg/mL (≈ 27.1 µM); in the data set on Staphylococcus aureus [2], 16 µg/mL (≈ 54.2 µM).

As for `CC(C)[C@@H]1O/C(=C/C(=O)CCc2ccc(C(F)(F)F)cc2)NC1=O`, the minimal inhibitory concentration (MIC) against Staphylococcus aureus [1] came out at 0.5 µg/mL (≈ 1.46 µM); in the data set on Staphylococcus aureus [2], 2 µg/mL (≈ 5.86 µM).

On to `CC(C)[C@@H]1O/C(=C/C(=O)Cc2ccccc2Br)NC1=O`, for which the figures for the MIC against Staphylococcus aureus [1] and in the data set with Staphylococcus aureus [2] were 8 µg/mL (≈ 23.7 µM) and 16 µg/mL (≈ 47.3 µM), respectively.

As for `CC(C)[C@@H]1O/C(=C/C(=O)CCCCCc2ccccc2)NC1=O`, the MIC against Staphylococcus aureus [1] came to 2 µg/mL (≈ 6.34 µM); in the data set with Acinetobacter baumannii, 128 µg/mL (≈ 406 µM); in the data set on Staphylococcus aureus [2], 4 µg/mL (≈ 12.7 µM).

For the compound `CC(C)[C@@H]1O/C(=C/C(=O)Cc2ccc(C#N)cc2)NC1=O`, the results for the MIC against Staphylococcus aureus [1] and against Staphylococcus aureus [2] were 4 µg/mL (≈ 14.1 µM) and 8 µg/mL (≈ 28.1 µM), respectively.

Take `CC(C)[C@@H]1O/C(=C/C(=O)Cc2ccc(-c3ccccc3)cc2)NC1=O`: the MIC was 0.125 µg/mL (≈ 0.373 µM) in the data set on Staphylococcus aureus [1]; greater than 128 µg/mL against Acinetobacter baumannii; 0.25 µg/mL (≈ 0.745 µM) with Staphylococcus aureus [2]; 32 µg/mL (≈ 95.4 µM) in the data set with Escherichia coli [3]; 0.25 µg/mL (≈ 0.745 µM) in the data set on Escherichia coli [4]; greater than 128 µg/mL against Escherichia coli [5].

Consider `Cc1ccc(C)c(CC(=O)/C=C2\NC(=O)[C@H](C(C)C)O2)c1`, for which the minimum inhibitory concentration (MIC) was 8 µg/mL (≈ 27.8 µM) in the data set with Staphylococcus aureus [1] and 16 µg/mL (≈ 55.7 µM) with Staphylococcus aureus [2].

As for `CC(C)[C@@H]1O/C(=C/C(=O)CCc2ccc(Cl)cc2)NC1=O`, the MIC against Staphylococcus aureus [1] worked out at 0.5 µg/mL (≈ 1.62 µM); against Acinetobacter baumannii, 128 µg/mL (≈ 416 µM); in the data set with Staphylococcus aureus [2] it was 2 µg/mL (≈ 6.5 µM).

Consider `CC(C)[C@@H]1O/C(=C/C(=O)Cc2ccc(C(C)(C)C)cc2)NC1=O`, for which the figures for the MIC against Staphylococcus aureus [1] and with Staphylococcus aureus [2] were 2 µg/mL (≈ 6.34 µM) and 4 µg/mL (≈ 12.7 µM), respectively.

As for `CC(C)[C@@H]1O/C(=C/C(=O)Cc2cc(F)c(F)c(F)c2)NC1=O`, the results for the minimal inhibitory concentration (MIC) against Staphylococcus aureus [1] and with Staphylococcus aureus [2] were 4 µg/mL (≈ 12.8 µM) and 8 µg/mL (≈ 25.5 µM), respectively.

On to `CC(C)[C@@H]1O/C(=C/C(=O)Cc2ccc([N+](=O)[O-])cc2)NC1=O`, for which the minimal inhibitory concentration (MIC) is 8 µg/mL (≈ 26.3 µM) in the data set on Staphylococcus aureus [1] and 64 µg/mL (≈ 210 µM) in the data set on Staphylococcus aureus [2].

In the case of `CC(C)[C@@H]1O/C(=C/C(=O)CCc2ccc(F)cc2)NC1=O`, the MIC against Staphylococcus aureus [1] turned out to be 8 µg/mL (≈ 27.5 µM); in the data set on Staphylococcus aureus [2] it was 16 µg/mL (≈ 54.9 µM).

Turning to `CC(C)[C@@H]1O/C(=C/C(=O)Cc2ccc(N)cc2)NC1=O`, the MIC was 64 µg/mL (≈ 233 µM) against Staphylococcus aureus [1] and greater than 128 µg/mL against Staphylococcus aureus [2].

`CC(C)[C@@H]1O/C(=C/C(=O)Cc2ccc(Cl)cc2)NC1=O`: the MIC in the data set with Staphylococcus aureus [1] stood at 0.5 µg/mL (≈ 1.7 µM); with Acinetobacter baumannii, 64 µg/mL (≈ 218 µM); against Staphylococcus aureus [2], 2 µg/mL (≈ 6.81 µM).

Turning to `Cc1ccc(CC(=O)/C=C2\NC(=O)[C@H](C(C)C)O2)cc1`, the minimal inhibitory concentration (MIC) in the data set on Staphylococcus aureus [1] is 2 µg/mL (≈ 7.32 µM); with Acinetobacter baumannii, 128 µg/mL (≈ 468 µM); against Staphylococcus aureus [2], 4 µg/mL (≈ 14.6 µM).

As to `COc1ccc(OC)c(CC(=O)/C=C2\NC(=O)[C@H](C(C)C)O2)c1`, the MIC against Staphylococcus aureus [1] came out at 4 µg/mL (≈ 12.5 µM); with Staphylococcus aureus [2], 16 µg/mL (≈ 50.1 µM).

For the compound `CCCCCCCCCC(=O)/C=C1\NC(=O)[C@H](C(C)C)O1`, the half-maximal inhibitory concentration (IC50) (as a rule, the concentration that inhibits the measured activity by half) with A549 was determined as 10 µg/mL (≈ 33.8 µM). Also, the minimal inhibitory concentration (MIC) is 0.5 µg/mL (≈ 1.69 µM) in the data set on Staphylococcus aureus [2], 32 µg/mL (≈ 108 µM) in the data set on Escherichia coli [3], 1 to 2 µg/mL (≈ 3.38 to 6.77 µM) with Escherichia coli [4] and greater than 128 µg/mL in the data set with Escherichia coli [5]. Also, the hemolysis in data set [6] is less than 1%.

For the compound `CC(C)[C@@H]1O/C(=C/C(=O)CCc2ccc(Br)cc2)NC1=O`, the MIC in the data set with Staphylococcus aureus [1] came to 1 µg/mL (≈ 2.84 µM); with Acinetobacter baumannii it was 128 µg/mL (≈ 363 µM); against Staphylococcus aureus [2], 2 µg/mL (≈ 5.68 µM).

Turning to `CC(C)[C@@H]1O/C(=C/C(=O)CCc2ccccc2)NC1=O`, the values for the minimum inhibitory concentration (MIC) against Staphylococcus aureus [1], against Acinetobacter baumannii and in the data set on Staphylococcus aureus [2] were 4 µg/mL (≈ 14.6 µM), 128 µg/mL (≈ 468 µM) and 8 µg/mL (≈ 29.3 µM), respectively.

As for `CC(C)[C@@H]1O/C(=C/C(=O)Cc2cccc(Br)c2)NC1=O`, the minimal inhibitory concentration (MIC) in the data set with Staphylococcus aureus [1] came to 2 µg/mL (≈ 5.91 µM); in the data set with Staphylococcus aureus [2] it was 16 µg/mL (≈ 47.3 µM).

`CC(C)[C@@H]1O/C(=C/C(=O)CCc2ccc(C(C)(C)C)cc2)NC1=O`: the minimal inhibitory concentration (MIC) against Staphylococcus aureus [1] came to 0.25 µg/mL (≈ 0.759 µM); in the data set on Staphylococcus aureus [2], 2 µg/mL (≈ 6.07 µM).

Take `Cc1ccc(CCC(=O)/C=C2\NC(=O)[C@H](C(C)C)O2)cc1`: the MIC with Staphylococcus aureus [1] worked out at 8 µg/mL (≈ 27.8 µM); against Staphylococcus aureus [2] it was 16 µg/mL (≈ 55.7 µM).

As for `COc1ccc(OC)c(CCC(=O)/C=C2\NC(=O)[C@H](C(C)C)O2)c1`, the results for the MIC with Staphylococcus aureus [1], in the data set with Acinetobacter baumannii and in the data set with Staphylococcus aureus [2] were 8 µg/mL (≈ 24 µM), greater than 128 µg/mL and 4 µg/mL (≈ 12 µM), respectively.

For the compound `CC(C)[C@@H]1O/C(=C/C(=O)Cc2ccc(C(F)(F)F)cc2)NC1=O`, the results for the MIC with Staphylococcus aureus [1], in the data set on Acinetobacter baumannii and in the data set with Staphylococcus aureus [2] were 2 µg/mL (≈ 6.11 µM), 128 µg/mL (≈ 391 µM) and 4 µg/mL (≈ 12.2 µM), respectively.

For the compound `CC(C)[C@@H]1O/C(=C/C(=O)Cc2ccc(OC(F)(F)F)cc2)NC1=O`, the minimum inhibitory concentration (MIC) in the data set with Staphylococcus aureus [1] was 0.5 µg/mL (≈ 1.46 µM); in the data set with Staphylococcus aureus [2], 2 µg/mL (≈ 5.83 µM); in the data set on Escherichia coli [3], 32 µg/mL (≈ 93.2 µM); with Escherichia coli [4], 0.06 µg/mL (≈ 0.175 µM); with Escherichia coli [5], greater than 128 µg/mL. Moreover, the IC50 in the data set with A549 is 14 µg/mL (≈ 40.8 µM). Besides, the hemolysis in data set [6] was less than 1%.

For `CC(C)[C@@H]1O/C(=C/C(=O)Cc2ccccc2)NC1=O`, the MIC with Staphylococcus aureus [1] is 2 µg/mL (≈ 7.71 µM); against Staphylococcus aureus [2], 4 µg/mL (≈ 15.4 µM); in the data set on Escherichia coli [3], 32 µg/mL (≈ 123 µM); in the data set on Escherichia coli [4], 2 µg/mL (≈ 7.71 µM); in the data set with Escherichia coli [5], greater than 128 µg/mL.

For the compound `CC(C)[C@@H]1O/C(=C/C(=O)Cc2ccc(F)cc2)NC1=O`, the MIC with Staphylococcus aureus [1] came out at 2 µg/mL (≈ 7.21 µM); in the data set on Staphylococcus aureus [2], 4 µg/mL (≈ 14.4 µM).

`CC(=O)NC[C@H]1CN(c2ccc(N3CCOCC3)c(F)c2)C(=O)O1` [LINEZOLID]: the MIC in the data set on Staphylococcus aureus [1] is 0.5 µg/mL (≈ 1.48 µM); against Acinetobacter baumannii, 64 µg/mL (≈ 190 µM); against Staphylococcus aureus [2], 1 µg/mL (≈ 2.96 µM); against Escherichia coli [3], 32 µg/mL (≈ 94.9 µM); with Escherichia coli [4] it was 2 µg/mL (≈ 5.93 µM); against Escherichia coli [5] it was greater than 128 µg/mL.
